From PMC7926793, “Synthesis and Biological Evaluation of 1-(Diarylmethyl)-1H-1,2,4-triazoles and 1-(Diarylmethyl)-1H-imidazoles as a Novel Class of Anti-Mitotic Agent for Activity in Breast Cancer” (Pharmaceuticals, 2021)

Columns and labels:
[1] = system: MCF-10A non-tumorigenic human mammary epithelial cells; experiment: toxicity evaluation, alamarBlue assay; assay type: cell-based; details: 10 μM, 24 h
[2] = HPLC stability study in phosphate buffers; assay type: physicochemical
Protocol: Stability studies for compounds 21l and 24 were performed by analytical HPLC using a Symmetry® column (C18, […], 4.6 × 150 mm), a Waters 2487 Dual Wavelength Absorbance detector, a Waters 1525 binary HPLC pump, and a Waters 717 plus Autosampler (Waters Corporation, Milford, MA, USA). Samples were detected at λ 254 nm using acetonitrile (70%)/water (30%) as the mobile phase over 15 min and a flow rate of 1 mL/min. Stock solutions of the compounds are prepared using 10 mg of compounds 21l and 24 in 10 mL of mobile phase (1 mg/mL). Phosphate buffers at the desired pH values (4, 7.4, and 9) were prepared following the British Pharmacopoeia monograph 2020. Then, 30 μL of stock solution was diluted with 1 mL of appropriate buffer, shaken, and injected immediately. Samples were withdrawn and analysed at time intervals of t = 0 min, 5 min, 30 min, 60 min, and hourly for 24 h.

MCF-7 cells = experiment: cell cycle analysis, PI staining, flow cytometry; assay type: cell-based, human; details: 1 μM
Protocol: The cells were collected by trypsinisation and centrifuged at 800× g for 15 min. Cells were washed twice with ice-cold phosphate-buffered saline (PBS) and fixed in ice-cold 70% ethanol overnight at −20 °C.

PARP = experiment: Western blot in MCF-7 cells; assay type: cell-based, human; details: MCF-7, 1 μM, vs vehicle
Protocol: (§1) MCF-7 cells were seeded at a density of 1 × 10^5 cells/flask (10 mL) in T25 flasks. After 48 h, whole cell lysates were prepared from untreated cells or cells treated with vehicle control (EtOH, 0.1% v/v) or selected compound 21l or 24 (1 μM). MCF-7 cells were harvested in Radioimmunoprecipitation assay buffer (RIPA) buffer supplemented with protease inhibitors (Roche Diagnostics), phosphatase inhibitor cocktail 2 (Sigma-Aldrich), and phosphatase inhibitor cocktail 3 (Sigma-Aldrich). Equal quantities of protein (as determined by a bicinchoninic acid assay (BCA assay) were resolved by SDS-PAGE (12%) followed by transfer to polyvinylidene fluoride PVDF membranes. Membranes were blocked in 5% bovine serum albumin/Tris-buffered saline with 0.1% Tween®20 Detergent (TBST) for 1 h. Membranes were incubated in the relevant primary antibodies at 4 °C overnight, washed with TBST, and incubated in horseradish peroxidase-conjugated secondary antibody for 1 h at rt and washed again. Western blot analysis was performed as described above using antibodies directed against Mcl-1 (1:1000) (Millipore), Bcl-2 [1:500] (Millipore), and PARP followed by incubation with a horseradish peroxidase-conjugated anti-mouse antibody (1:2000) (Promega, Madison, WI, USA). All blots were probed with anti-glyceraldehyde 3-phosphate dehydrogenase (GAPDH) antibody (1:5000) (Millipore) to confirm equal loading. Proteins were detected using enhanced chemiluminescent Western blot detection (Clarity Western ECL substrate) (Bio Rad) on the ChemiDoc MP System (Bio Rad). Experiments were performed on three independent occasions.

Mcl-1 = experiment: Western blot in MCF-7 cells; assay type: cell-based, human; details: MCF-7, 1 μM
Protocol: as §1

Bcl-2 = experiment: Western blot in MCF-7 cells; assay type: cell-based, human; details: MCF-7, 1 μM
Protocol: as §1

HL-60 leukaemia cells = experiment: cell viability assay; assay type: cell-based; details: Homo sapiens, read-out: Antiproliferative Activity HL-60 Cells IC50
Protocol: The human breast carcinoma cell line MCF-7 was purchased from the European Collection of Animal Cell Cultures (ECACC) and cultured in Eagles minimum essential medium with 10% foetal bovine serum, 2 mM L-glutamine, and 100 μg/mL penicillin/streptomycin. The medium was supplemented with 1% non-essential amino acids. The human breast carcinoma cell line MDA-MB-231 was purchased from the ECACC. MDA-MB-231 cells were maintained in Dulbecco’s modified Eagle’s medium (DMEM) supplemented with 10% (v/v) foetal bovine serum, 2 mM L-glutamine, and 100 μg/mL penicillin/streptomycin (complete medium). HL-60 cells were derived from a patient with acute myeloid leukaemia and were obtained from the ECACC (Salisbury, UK). Cells were cultured in RPMI-1640 Glutamax medium supplemented with 10% FCS media and 100 μg/mL penicillin/streptomycin. MCF-10A cells were obtained as a kind gift from Dr Susan McDonnell, School of Chemical and Bioprocess Engineering, University College Dublin and were cultured in Dulbecco’s Modified Eagle Medium: Nutrient Mixture F-12 (DMEM/F12; Gibco) supplemented with 5% horse serum (Invitrogen), 20 ng mL^−1 epidermal growth factor (Merck Millipore), 0.5 μg mL^−1 hydrocortisone (Sigma,-Aldrich, Arklow, Co. Wicklow, Ireland), 100 ng mL^−1 cholera toxin (Sigma, Aldrich, Arklow, Co. Wicklow, Ireland), 10 μg mL^−1 insulin (Sigma, Aldrich, Arklow, Co. Wicklow, Ireland), and penicillin/streptomycin 5000 U mL^−1 (1%)(Gibco, Biosciences, 3 Charlemont Terrace, Crofton Road, Dun Laoghaire, Co Dublin, A96 K7H7, Ireland). […]
Cells were seeded at a density of 2.5 × 10^4 cells/well (MCF-7, MDA-MB-231, MCF-10A cells) and 1 × 10^4 cells/well (HL-60) in 96-well plates (200 μL per well). […] Cell proliferation for MCF-7, MDA-MB-231, and MCF-10A cells was analysed using the alamarBlue assay (Invitrogen Corp.) according to the manufacturer’s instructions. […] Fluorescence was read using a 96-well fluorimeter with excitation at 530 nm and emission at 590 nm. Results were expressed as percentage viability relative to vehicle control (100%).

Row | SMILES | cell death [1] | compound remaining (HPLC) ([2]; pH 4, 24 h) [%] | compound remaining (HPLC) ([2]; pH 7.4, 24 h) [%] | compound remaining (HPLC) ([2]; pH 9, 24 h) [%] | cells in the G2/M phase (MCF-7 cells; 24 h) [%] | cells in the G2/M phase (MCF-7 cells; 48 h) [%] | cells in the G2/M phase (MCF-7 cells; 72 h) [%] | expression of full-length PARP (116 kDa) (PARP) | expression level of Mcl-1 (Mcl-1) | expression level of Bcl-2 (Bcl-2) | IC50 (HL-60 leukaemia cells) [nM] | cells undergoing apoptosis (sub-G1) (MCF-7 cells; 24 h) [%] | cells undergoing apoptosis (sub-G1) (MCF-7 cells; 48 h) [%] | cells undergoing apoptosis (sub-G1) (MCF-7 cells; 72 h) [%]
1 | COc1ccc(C(c2cc(OC)c(OC)c(OC)c2)n2cncn2)cc1O (centres unmarked) [19e, 5-((1H-1,2,4-Triazol-1-yl)(3,4,5-Trimethoxyphenyl)methyl)-2-Methoxyphenol] | approximately 50% |  |  |  |  |  |  |  |  |  |  |  |  | 
2 | COc1ccc(C(c2cc(OC)c(OC)c(OC)c2)n2nccn2)cc1O (centres unmarked) [compound 24] |  | 65 | 50 | 60 | 52 | 56 | 59 | significant reduction | no change | no change | 173 ± 55 |  |  | 
3 | COc1ccc(C(c2cc(OC)c(OC)c(OC)c2)n2ccnc2)cc1O (centres unmarked) [21l, 5-((1H-Imidazol-1-yl)(3,4,5-Trimethoxyphenyl)Methyl)-2-Methoxyphenol] | approximately 50% | 90 |  |  | 47 | 43 | 40 | significant reduction | no change | no change | 156 ± 52 | 15 | 31 | 37
